In general, CC50 refers to the concentration at which the toxic effect on the cells reaches its halfway point. In general, IC50 refers to the concentration that inhibits the measured activity by half.

The text below walks through data of patent US20240150396A1 (The Texas A&M University System, priority 2021, published 2024).

The structures appear in SMILES notation. Where “and” joins values, the source holds several entries; their conditions need not be identical. Identical values can stand only once. Like-named read-outs stand apart in the source and are kept apart here. A value given as a limit tells only on which side of the number the result lay.

One data set has as its target cruzain (Trypanosoma cruzi, UniProt P25779). Put plainly: biochemical. The note with it: for Ki: pH 7.5. In short, it runs like this:
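Fluorogenic assay at 25 °C following AMC release (ex 360/em 460 nm), with typically 0.2 nM cruzain and 10% DMSO, at pH 7.5 or 5.5 buffer with 5 mM DTT.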

Data set [1] deals with SARS-CoV-2 in Vero E6 cells. Put plainly: Anti-CoV-2 activity in Vero E6 cells. The data set is classed as cell-based.
Data set [2] relates to SARS-CoV-2 in A549/ACE2 cells. The data set is classed as cell-based. The following applies: read-out: Anti-CoV-2 EC50 A549/ACE2 Cells.
Data set [3] concerns CYPs 3A4, 2D6 and 2C9. As to the kind of experiment: Stability of acetal prodrugs to CYPs. The note with it: CYP 3A4, 2D6, 2C9, NADPH-regenerating system, up to 4 h.
Data set [4] deals with T. b. brucei bloodstream forms. As to the kind of experiment: Growth of axenic cultures of T. b. brucei bloodstream forms (BSFs).
For data set [5], the system named is T. cruzi (Ca-I/72) in C2C12 murine cardiomyoblasts. As to the kind of experiment: T. cruzi-infected murine cardiomyoblasts (C2C12). The class given is cell-based, Trypanosoma cruzi. Put shortly: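 Infected-host-cell imaging assay: inhibitor, 3-fold dilutions topping at 10 μM, was added to C2C12 murine cardiomyoblasts infected with 10^3 or 10^4 Ca-I/72 parasites for 2 days at 37° C. DAPI-stained fixed wells were imaged to count parasites and host cells separately, yielding antiparasitic EC50 and cytotoxic CC50.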

The test system of data set [6] is T. b. brucei procyclic forms. Put plainly: Growth of axenic cultures of T. b. brucei procyclic forms (PCFs). The data set is classed as cell-based, Trypanosoma brucei brucei. The following applies: axenic culture; read-out: EC50 T. b. brucei PCF.
A further data set deals with human dermal fibroblasts. As to the kind of experiment: Human cell toxicity, resazurin viability. The class given is cell-based. In short, it runs like this: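 Primary human dermal fibroblasts, 2400 cells/well, exposed in duplicate to inhibitors at final 0.001-0.1 mM in 1% DMSO (1% DMSO control) for 48 h at 37 °C. Resazurin then added and viability read by fluorescence (544/590 nm) after further 24 h.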
(The colour change of resazurin is a common sign of viable cells or microbes.)

The subject of data set [7] is C2C12 mouse cardiomyoblast cell line. Put plainly: Host cell cytotoxicity in the T. cruzi infection model. The class given is cell-based. The note with it: host cardiomyoblasts; read-out: C2C12 Cytotoxicity CC50. Put shortly:
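C2C12 murine cardiomyoblasts infected with T. cruzi were incubated with compound 48 h at 37 °C, fixed in 2% PFA and stained with 5 μg/ml DAPI. Automated microscopy imaging quantified host cells and parasites separately; host cytotoxicity derived as CC50.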

The nature of data set [8]: Thiolation of inhibitors with glutathione, LCMS. The data set is classed as physicochemical. The note with it: 1 mM glutathione, 0.5 mM compound, Tris pH 8.0, 10% DMSO, room temperature. How it is done: Samples were analyzed by HPLC-MS (as described above) by injecting 0.01 mL aliquots onto a Luna […] C18(2) 100 Å, 4.6 mm, 50 mm column (Phenomenex) using the HPLC method described in the chemistry section at 0-6 h time points. […] Integration of the chromatographic peaks of the inhibitors and their GSH adducts at each time point was used to determine the rate of GSH adduct formation.

The next data set addresses human cathepsin S (Homo sapiens (Human), UniProt P25774). The note with it: Ref. 32; read-out: apparent IC50 Human Cathepsin S; cited from earlier work.
Data set [9] concerns T. cruzi epimastigotes (strain Y). The following applies: Ndao et al. (2014), read-out: trypanocidal activity EC50; cited from earlier work.
For data set [10] the test system is unchanged. Put plainly: Growth of axenic cultures of T. cruzi epimastigotes. The following applies: epimastigotes.
Description: Selected cruzain inhibitors in axenic cell cultures of Trypanosoma brucei brucei (procyclic trypomastigotes; ATCC PRA-381) and Trypanosoma cruzi (epimastigote forms; strain Y, ATCC 50832GFP) were tested. T. b. brucei is grown in SDM-79 medium, and T. cruzi is grown in ATCC medium (1029 LIT medium). Both media included fetal calf serum (10%) and penicillin/streptomycin (50 U/mL). […] T. brucei and T. cruzi (5 mL in flask cultures) at 26° C. were seeded at ˜3×10^6 cells, and diluted daily maintaining a mid-log growth phase for up to 100 hrs. Cell counts were scored using a Z2 Coulter Counter. After each cell dilution, fresh compound or an equal volume of DMSO (control samples), was supplemented into the cultures. […] Cruzain inhibitors where the highest concentration reflects the upper limit of solubilities of the inhibitors in 1% (v/v) DMSO solutions were evaluated. These inhibitors are likely to bind to proteins in fetal calf serum, and for these reasons, fresh inhibitors were added each time cells were re-fed.
Selected cruzain inhibitors were evaluated in axenic cell cultures of T. b. brucei and T. cruzi. Procyclic trypomastigotes of T. b. brucei (ATCC PRA-381) were grown in the SDM-79 medium at 26° C., and bloodstream forms (ATCC PRA-383) were grown at 37° C. in the HMI-9 medium at 5% C02. T. cruzi (epimastigote forms, strain Y, ATCC 50832GFP) was grown in the ATCC medium (1029 LIT medium). Both forms of T. b. brucei and T. cruzi were grown in media containing 10% fetal bovine serum (FBS) and penicillin/streptomycin (50 U mL^−1). […] Control samples contained equal amounts of DMSO. T. b. brucei and T. cruzi (5 mL in flask cultures) were seeded at ˜3×10^6 cells and diluted daily, maintaining a mid-log growth phase for up to 120 h. […] After each cell dilution, fresh compound or an equal volume of DMSO (control samples) was supplemented into the cultures, while maintaining a constant concentration of each inhibitor. Cell counts were scored using a Z2 Coulter Counter.
The test system of data set [11] is T. b. brucei bloodstream forms. The note with it: Ref. 25; read-out: EC50 in T. b. brucei BSFs; cited from earlier work.
The test system of data set [12] is T. cruzi (Ca-I/72) in C2C12 murine cardiomyoblasts. The note with it: antichagasic activity, Ref. 55; cited from earlier work.
Data set [13] has as its system CYPs 3A4, 2D6 and 2C9. The following applies: human, 4 h, 0.5 mM, pH 7.5.
Data set [14] can be described thus: Detection of aldehyde content using phenylhydrazine. The class given is physicochemical. The note with it: 1 mM phenylhydrazine. As for the experimental part:
Detection of Aldehyde Content Using Phenylhydrazine. In a 96-well clear microplate, compounds 52 and 36 in DMSO solutions, or pure DMSO as a control, were diluted into the above NMR buffer without addition of DTT to make 250 μL-samples, each containing 0.2 mM of compounds and 10% DMSO (v/v). Upon addition of 1M phenylhydrazine (0.25 μL), the formation of phenylhydrazone in these wells were continuously monitored for 2 hours by measuring UV absorbance at the maximal wavelength of 282 nm.

Where [15] appears, read: obtained >10 minutes following initiation of reaction by addition of enzyme, read-out: Ki* Cruzain.
Where [16] appears, read: read-out: EC50 T. b. brucei BSF, axenic culture.

cruzain, sequence (P25779 123-467 limits assumed): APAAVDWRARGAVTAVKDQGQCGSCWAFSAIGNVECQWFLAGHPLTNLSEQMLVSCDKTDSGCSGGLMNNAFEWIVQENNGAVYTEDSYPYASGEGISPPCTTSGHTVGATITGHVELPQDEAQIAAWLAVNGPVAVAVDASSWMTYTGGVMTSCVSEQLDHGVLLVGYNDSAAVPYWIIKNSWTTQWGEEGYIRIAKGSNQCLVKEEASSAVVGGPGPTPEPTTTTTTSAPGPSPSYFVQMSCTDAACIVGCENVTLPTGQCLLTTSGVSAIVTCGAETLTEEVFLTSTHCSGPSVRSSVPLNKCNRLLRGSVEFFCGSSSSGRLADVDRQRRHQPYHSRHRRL
human cathepsin S, sequence (P25774 115-331): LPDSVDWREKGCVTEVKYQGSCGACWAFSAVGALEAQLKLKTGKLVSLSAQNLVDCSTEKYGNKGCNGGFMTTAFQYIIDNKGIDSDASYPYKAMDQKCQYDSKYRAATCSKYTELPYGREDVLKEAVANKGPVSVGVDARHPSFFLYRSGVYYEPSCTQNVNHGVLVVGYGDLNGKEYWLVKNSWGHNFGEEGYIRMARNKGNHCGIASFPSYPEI

Turning to `CC(C)OC1Oc2ccccc2C[C@@H]1NC(=O)[C@H](Cc1ccccc1)NC(=O)N1CCN(C)CC1` (some centres unmarked) [Compound 41], the Ki is above 5 µM at cruzain (apparent tight-binding inhibition constant, 25° C., read-out: Ki*) and above 5 µM on cruzain (setting [15]). The EC50 in [1] is above 20 µM; in data set [2], 5 µM; in data set [4] (setting [16]), 14 ± 0.9 µM. Further, in the data set on CYPs 3A4, 2D6 and 2C9 [3], the “transformation to 36 by CYPs” value was “no transformation to 36 was observed”.
Turning to `CN1CCN(C(=O)N[C@@H](Cc2ccccc2)C(=O)N[C@H](/C=C/S(=O)(=O)c2ccccc2)CCc2ccccc2)CC1` [Compound K11777, reference compound], the EC50 in data set [5] (C2C12 murine cardiomyoblasts, listed as K777, read-out: EC50 T. cruzi-infected cardiomyoblasts) is 0.038 ± 0.009 µM; in [5] (C2C12 murine cardiomyoblasts, read-out: EC50 T. cruzi-infected cardiomyoblasts), 0.7 µM; in data set [6] it was 2 µM and 2.3 µM and 1.7 µM; in the data set on human dermal fibroblasts it was 70 µM; in [9] it was 10 to 100 µM; in data set [10] (read-out: T. cruzi axenic culture EC50), around 60 µM. The EC50 in data set [4] (setting [16]) is 0.09 ± 0.06 µM. Besides, in the data set with human dermal fibroblasts (concentration at which toxicity was or was not seen), the “toxicity in human dermal fibroblasts, concentration” value worked out at 70 µM. Moreover, the CC50 is 60 to 100 µM in the data set on human dermal fibroblasts (human dermal fibroblasts, read-out: Human Cell Cytotoxicity CC50) and above 10 µM in data set [7]. For the same molecule, in data set [8], the “Rate of Thiolation, k” value came out at 0.00467 ± 0.0067 M⁻¹ s⁻¹. Also, the IC50 at human cathepsin S is 0.0006 µM. Further, in data set [10], the “T. cruzi axenic culture EC50” value is reported as “poorly effective”.
Turning to `N=C(N)c1ccc(/N=N/Nc2ccc(C(=N)N)cc2)cc1` [diminazene], the EC50 in data set [11] was 0.99 µM.
For the molecule `O=C(Cn1ccnc1[N+](=O)[O-])NCc1ccccc1` [benznidazole, reference compound], the EC50 in data set [5] (Trypanosoma cruzi, C2C12, read-out: EC50 T. cruzi-infected cardiomyoblasts) was 4 ± 2 µM. Moreover, the LD50 in [12] was 1.5 µM.
Turning to `CCOC1Oc2ccccc2C[C@@H]1NC(=O)[C@H](Cc1ccccc1)NC(=O)N1CCN(C)CC1` (stereo partly drawn) [Compound 40, N-((2S)-1-(((3S)-2-ethoxychroman-3-yl)amino)-1-oxo-3-phenylpropan-2-yl)-4-methylpiperazine-1-carboxamide], the “transformation to 36 by CYPs” value with CYPs 3A4, 2D6 and 2C9 [13] is reported as “no transformation to 36 was observed”. Further, the EC50 in data set [4] (Trypanosoma brucei, read-out: EC50 T. b. brucei BSF, axenic culture) is 11 to 14 µM; in data set [4] (setting [16]), 12 ± 0.1 µM.
For `CN1CCN(C(=O)N[C@@H](Cc2ccccc2)C(=O)N[C@H](C=O)CCc2ccccc2)CC1` [Compound 52, 4-Methyl-N—((S)-1-oxo-1-(((S)-1-oxo-4-phenylbutan-2-yl)amino)-3-phenylpropan-2-yl)piperazine-1-carboxamide], the residence time at cruzain came out at 45 min. Moreover, the Ki on cruzain (setting [15]) was determined as 0.0005 ± 0.0002 µM. The “kobs of phenylhydrazone formation” value in data set [14] (0.2 mM compound) was “(2.61±0.05)×10^−4 s^−1”. The “free aldehyde by phenylhydrazine treatment” value in [14] (aqueous buffer, 2 hours) is “completely converted to phenylhydrazone”.
